Experimental data taken from publication PMC7464159, “Triple Negative Breast Cancer and Breast Epithelial Cells Differentially Reprogram Glucose and Lipid Metabolism upon Treatment with Triterpenic Acids” (Biomolecules, 2020).

System: MDA-MB-231 cells
Assay: 1H NMR metabolomics of polar (aqueous) cell extracts
Format: cell-based, human
Method: MDA-MB-231 and MCF-10A cells were seeded in 10-cm-diameter Petri dishes at a density of 6 × 10^5 cells/mL (10 mL per dish) and cultured for 24 h at 37 °C. […] Vehicle solvent control cells received DMSO (0.10% v/v). Samples were collected immediately after 48 h incubation or, to assess cellular recovery, medium was replaced with fresh growth medium (without TAs), and cells were incubated for additional 24 h before collection (48 + 24 h samples). Four independent assays were performed.
After incubation, culture medium was collected and centrifuged (1000× g, 5 min) and the supernatant stored at −80 °C until analysis. Culture medium without cells was placed under the same conditions and collected. Cell extraction was performed as described by Carrola et al.. Briefly, cells were washed four times with PBS and extracted with a mixture of methanol:chloroform:water (1:1:0.7). The resulting polar and organic phases were collected and then dried under vacuum or under a stream of nitrogen gas, respectively. All samples were stored at −80 °C and, at the time of analysis, dried polar extracts were reconstituted in 600 µL of deuterated phosphate buffer (100 mM, pH 7.4) containing 0.1 mM TSP-d4, while organic extracts were reconstituted in deuterated chloroform containing 0.03% TMS. Regarding medium samples, 540 μL were mixed with 60 μL of D2O containing 0.25% TSP-d4. Prior to analysis, 550 μL of each sample were transferred to 5 mm NMR tubes.
^1H NMR spectra of all samples were acquired on a Bruker Avance III HD 500 NMR spectrometer (University of Aveiro, Portuguese NMR Network) operating at 500.13 MHz for ^1H observation equipped with a 5 mm TXI probe. Standard 1D spectra (Bruker pulse programs ‘noesypr1d’, with water suppression, for medium samples and aqueous extracts, and ‘zg’ for organic extracts) were recorded with a 7002.8 Hz spectral width, 32 k data points, a 2 s relaxation delay and 512 scans. Spectral processing comprised exponential multiplication with 0.3 Hz line broadening, zero filling to 64 k data points, manual phasing, baseline correction, and chemical shift calibration to the TSP or TMS signal at 0 ppm. 2D ^1H-^1H total correlation (TOCSY) spectra, ^1H-^13C heteronuclear single quantum correlation (HSQC) spectra and J-resolved spectra were also registered for selected samples to assist spectral assignment. Metabolites were identified with the support of 2D spectra and the spectral reference databases BBIOREFCODE-2-0-0 (Bruker Biospin, Rheinstetten, Germany) and HMDB [28]. Selected signals were then integrated using the AmixViewer software […] (version 3.9.14, Bruker BioSpin, Rheinstetten, Germany) and normalized by the total spectral area. The magnitude of each metabolite change was assessed through the percentage of variation (and its respective error) in exposed samples relatively to controls, and through the effect size (ES) adjusted for small sample numbers (and respective standard error). Metabolite variations with absolute ES greater than 0.8 were expressed in a heatmap, colored as a function of the percentage of variation, employing the R statistical software.

## C[C@H]1[C@H](C)CC[C@]2(C(=O)O)CC[C@]3(C)C(=CC[C@@H]4[C@@]5(C)CC[C@H](O)C(C)(C)[C@@H]5CC[C@]43C)[C@H]12 [UA, ursolic acid]
UA 10µM, 48h
  ATP %var: 0%
  Acetate %var: 0%
  Ala %var: 0%
  Asp %var: 0%
  Choline %var: -6.23%
  Citrate %var: -23.26%
  Cr %var: 0%
  Fumarate %var: 0%
  GPC %var: 9.94%
  GSH %var: -7.40%
  Gln %var: -13.00%
  Glu %var: 0%
  Gly %var: 0%
  Ile %var: 0%
  Lactate %var: 0%
  Leu %var: 0%
  PC %var: -7.00%
  PCr %var: -13.59%
  Phe %var: 0%
  Pro %var: 0%
  Tau %var: 0%
  Tyr %var: 0%
  Val %var: 0%
  myo-Ino %var: 0%
UA 10µM, 48h+24h
  ATP %var: 0%
  Acetate %var: 0%
  Ala %var: 0.00%
  Asp %var: 0.00%
  Choline %var: 0%
  Citrate %var: -10.99%
  Cr %var: 0%
  Fumarate %var: 0%
  GPC %var: 0%
  GSH %var: 0%
  Gln %var: 0%
  Glu %var: 0%
  Gly %var: -7.50%
  Ile %var: 0%
  Lactate %var: 0%
  Leu %var: 0%
  PC %var: 0%
  PCr %var: 0%
  Phe %var: 0%
  Pro %var: 0%
  Tau %var: 0%
  Tyr %var: 0%
  Val %var: 0%
  myo-Ino %var: 0%
UA 20µM, 48h
  ATP %var: 0%
  Acetate %var: 10.69%
  Ala %var: 0%
  Choline %var: 0%
  Citrate %var: -19.44%
  Cr %var: 0%
  GPC %var: 10.72%
  GSH %var: -7.50%
  Gln %var: 0%
  Glu %var: 0%
  Gly %var: -15.08%
  Ile %var: 0%
  Lactate %var: 0%
  Leu %var: 0%
  PC %var: -6.17%
  PCr %var: -10.77%
  Phe %var: 0%
  Pro %var: 0%
  Tau %var: 11.82%
  Tyr %var: 0%
  Val %var: 0%
  myo-Ino %var: 0%
  number of intracellular polar metabolites consistently altered: 10
UA 20µM, 48h+24h
  ATP %var: -9.33%
  Acetate %var: 11.02%
  Ala %var: -12.11%
  Asp %var: 32.91%
  Choline %var: 0%
  Citrate %var: -15.02%
  Cr %var: 0%
  Fumarate %var: -10.34%
  GPC %var: -6.52%
  GSH %var: -8.79%
  Gln %var: 0%
  Glu %var: 0%
  Gly %var: -25.85%
  Ile %var: 0%
  Lactate %var: 0%
  Leu %var: 0%
  PC %var: 21.66%
  PCr %var: 0%
  Phe %var: 0%
  Pro %var: 0%
  Tau %var: 0%
  Tyr %var: 0%
  Val %var: 0%
  myo-Ino %var: -9.02%

## C=C(C)[C@@H]1CC[C@]2(C(=O)O)CC[C@]3(C)[C@H](CC[C@@H]4[C@@]5(C)CC[C@H](O)C(C)(C)[C@@H]5CC[C@]43C)[C@@H]12 [BA, betulinic acid]
BA 5µM, 48h
  ATP %var: 0%
  Acetate %var: 0%
  Ala %var: -12.64%
  Asp %var: -30.52%
  Choline %var: 10.16%
  Citrate %var: -40.97%
  Cr %var: 22.45%
  Fumarate %var: -35.42%
  GPC %var: 13.50%
  GSH %var: -15.77%
  Gln %var: -28.49%
  Glu %var: -24.61%
  Gly %var: 0%
  Ile %var: 14.68%
  Lactate %var: 53.08%
  Leu %var: 15.91%
  PC %var: -24.96%
  PCr %var: -19.36%
  Phe %var: 6.80%
  Pro %var: 16.73%
  Tau %var: 6.09%
  Tyr %var: 8.11%
  Val %var: 18.46%
  myo-Ino %var: -8.23%
BA 5µM, 48h+24h
  ATP %var: -7.54%
  Acetate %var: 0%
  Ala %var: -7.44%
  Asp %var: 0%
  Choline %var: 0%
  Citrate %var: -12.45%
  Cr %var: 0%
  Fumarate %var: 0%
  GPC %var: 0%
  GSH %var: 0%
  Gln %var: 0%
  Glu %var: 0%
  Gly %var: -8.57%
  Ile %var: 0%
  Lactate %var: 0%
  Leu %var: 0%
  PC %var: 0%
  PCr %var: 0%
  Phe %var: 0%
  Pro %var: 0%
  Tau %var: 0%
  Tyr %var: 0%
  Val %var: 0%
  myo-Ino %var: -6.52%
BA 15µM, 48h
  ATP %var: 0%
  Acetate %var: 21.07%
  Ala %var: -10.34%
  Asp %var: -12.45%
  Choline %var: 12.46%
  Citrate %var: -51.74%
  Cr %var: 18.99%
  Fumarate %var: -37.50%
  GPC %var: 26.27%
  GSH %var: -25.87%
  Gln %var: -20.94%
  Glu %var: -37.41%
  Gly %var: -9.59%
  Ile %var: 30.97%
  Lactate %var: 55.73%
  Leu %var: 33.86%
  PC %var: -38.62%
  PCr %var: -22.44%
  Phe %var: 24.06%
  Pro %var: 21.93%
  Tau %var: 7.79%
  Tyr %var: 28.53%
  Val %var: 38.79%
  myo-Ino %var: -18.58%
  number of intracellular polar metabolites consistently altered: 23
BA 15µM, 48h+24h
  ATP %var: -15.36%
  Acetate %var: 22.70%
  Ala %var: -12.62%
  Asp %var: 0%
  Choline %var: 0%
  Citrate %var: -19.78%
  Cr %var: 0%
  Fumarate %var: 0%
  GPC %var: 0%
  GSH %var: 0%
  Gln %var: -5.26%
  Glu %var: -11.90%
  Gly %var: -31.75%
  Ile %var: 0%
  Lactate %var: 0%
  Leu %var: 0%
  PC %var: 0%
  PCr %var: -14.19%
  Phe %var: 0%
  Pro %var: 0%
  Tau %var: 0%
  Tyr %var: 0%
  Val %var: 0%
  myo-Ino %var: -17.84%
